Source: patent US20250064992A1, “IMAGING METHOD FOR DESIGNER RECEPTOR, ANTAGONIST OR AGONIST, PHARMACEUTICAL, AND COMPANION DIAGNOSTIC AGENT” (priority 2018, published 2025)

Columns and labels:
[1] = biological target: T1, hM4D (Homo sapiens, UniProt P08173, A203G/Y113C); assay: PET imaging of axon terminal (substantia nigra pars reticulata), projection target of hM4D-expressing nerve cell in right putamen; format: in vivo; conditions: Japanese macaque, PET average image 30 to 90 minutes after tracer
T1 construct: expressed in transfected cells; host or cells: neurons of the right putamen of a live Japanese macaque, transduced with AAV2-CMV-hM4D
T1 sequence (P08173 1-479 Y113C/A203G): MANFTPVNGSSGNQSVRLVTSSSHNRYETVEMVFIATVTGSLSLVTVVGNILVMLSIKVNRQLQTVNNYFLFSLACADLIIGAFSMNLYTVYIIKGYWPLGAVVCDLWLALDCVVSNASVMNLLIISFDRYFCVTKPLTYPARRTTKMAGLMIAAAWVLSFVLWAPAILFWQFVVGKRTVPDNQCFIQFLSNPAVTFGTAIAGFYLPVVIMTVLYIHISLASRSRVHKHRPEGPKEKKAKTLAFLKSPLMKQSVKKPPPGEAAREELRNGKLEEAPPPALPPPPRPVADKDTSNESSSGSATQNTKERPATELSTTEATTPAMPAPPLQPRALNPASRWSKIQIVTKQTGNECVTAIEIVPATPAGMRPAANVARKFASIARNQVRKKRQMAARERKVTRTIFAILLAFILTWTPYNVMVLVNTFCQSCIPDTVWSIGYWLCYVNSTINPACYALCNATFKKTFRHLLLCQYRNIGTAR
Method: (§1) Specifically, the [^11C]C22b was exogenously administered as a tracer in the same manner as in Example 1 and subjected to PET scanning for 90 minutes.
(§2) Specifically, the compound represented by […] ([^11C]C22b) was exogenously administered as a tracer and subjected to PET scanning for 90 minutes.

[2] = tested on: hM4D receptor; assay: PET imaging with radiolabeled tracer, ligand binding potential image (cerebellum as reference region), hM4D expressed in right putamen; format: in vivo; conditions: Japanese macaque, PET 90 minutes, cerebellum BP determined as 1, non-injection region
Method: (§3) The head of Japanese macaque (male/5.5 kg) was fixed to a stereotaxic instrument under general anesthesia, and 6 μL of an adeno-associated virus (AAV) vector (AAV2-CMV-hM4D) for expressing an hM4D receptor in a nerve cell-specific manner was injected for 12 minutes by a Hamilton syringe (10 μL) into a middle portion of the right putamen read from a magnetic resonance imaging (MRI) image taken in advance. Note that, here, the CMV was a promotor for gene expression.
(§4) On the day 427 days after the injection, a compound represented by Formula (II) (hereinafter may be referred to as [^11C]C22b) (364 MBq) serving as a radiolabeled tracer was intravenously administered under isoflurane anesthesia and subjected to PET scanning for 90 minutes.
(§5) An image of a ligand binding potential was created from PET data integrated for 90 minutes using the cerebellum as a reference region (the binding potential (BP) in the cerebellum was determined as 1).

[3] = biological target: T2, hM4D receptor (Homo sapiens, UniProt P08173, A203G/Y113C); assay: as above; format: in vivo; design: expressed in transfected cells; host or cells: neurons of the right putamen of a live Japanese macaque, transduced with AAV2-CMV-hM4D; conditions: Japanese macaque
Method: as §3, §4, §5

[4] = tested on: hM3D receptor; assay: PET imaging with radiolabeled tracer, ligand binding potential image (cerebellum as reference region), hM3D expressed in left amygdala; format: in vivo; conditions: Macaca mulatta, PET 90 minutes, cerebellum BP determined as 1, non-injection region
Method: (§6) The head of Macaca mulatta (male/4.2 kg) was fixed to a stereotaxic instrument under general anesthesia, 3 μL of an adeno-associated virus (AAV) vector (AAV2-CMV-hM3D) for expressing an hM3D receptor in a nerve cell-specific manner was injected for 12 minutes by a Hamilton syringe (10 μL) into a middle portion of the left amygdala read from a magnetic resonance imaging (MRI) image taken in advance. Note that, here, the CMV was a promotor for gene expression.
(§7) On the day 57 days after the injection, the [^11C]C22b (277 MBq) serving as a radiolabeled tracer was intravenously administered under isoflurane anesthesia and subjected to PET scanning for 90 minutes.
(§8) An image of a ligand binding potential was created from PET data integrated for 90 minutes using the cerebellum as a reference region (the binding potential (BP) of the cerebellum was determined as 1). A portion shown by an arrow in FIG. 6 represents the left amygdala into which the AAV vector has been injected.

[5] = biological target: T3, hM3D receptor (Homo sapiens, UniProt P20309, A239G/Y149C); assay: as above; format: in vivo; conditions: Macaca mulatta
T3 construct: expressed in transfected cells; host or cells: neurons of the left amygdala of live Macaca mulatta, transduced with AAV2-CMV-hM3D
Method: as §6, §7, §8

[6] = tested on: hM3D receptor; format: in vivo; conditions: Macaca mulatta
Method: as §6, §7

[7] = biological target: T3, hM3D receptor; format: in vivo; conditions: Macaca mulatta
Method: as §6, §7

[8] = biological target: T2, hM4D receptor; conditions: Japanese macaque; for Selectivity (expressed region/unexpressed region): hM4D, ratio of tracer amount per volume; for hM4D-expressed region amount of uptake of tracer: right putamen, PET 30 to 90 minutes after administration
Method: (§9) The [^11C]C22b (Example 2) and [^11C]clozapine ([^11C]CLZ, Comparative Example 1) were compared for a property of visualizing hM4D expressed in the Japanese macaque used in Example 1. The hM4D receptor was expressed in the same manner as in Example 1.
(§10) An average image integrated from 30 to 90 minutes after administration of a tracer was created based on a standardized uptake value (SUV) and an amount of uptake in the brain was calculated from PET imaging taken from 30 to 90 minutes after the administration in the frontal plane including the right putamen in which the hM4D was expressed.

[9] = tested on: hM4D receptor; conditions: Japanese macaque, PET 30 to 90 minutes after administration; for Whole brain amount of uptake of tracer: SUV; for Control region (hM4D-unexpressed region) amount of uptake of tracer: left putamen
Method: as §9, §10

[10] = biological target: T3, hM3D receptor; assay: 18F-FDG PET glucose metabolism image after C22b 0.1 mg/kg, hM3D expressed in left amygdala; format: in vivo; conditions: Macaca mulatta
Method: On the day 65 days after the AAV vector was injected, a C22b compound (0.1 mg/kg) was intravenously administered to the same Macaca mulatta as in Example 3 under isoflurane anesthesia, 1 minute later, ^18F-FDG (263 MBq) was intravenously administered, and then subjected to PET scanning for 90 minutes. Note that, here, the C22b compound was HY-42110 (manufactured by MedChem Express) which was the compound represented by Formula (III) in which R^1 was methyl, X was imino, and R^2 was hydrogen.
A glucose metabolism image (whole Brain Activity) when an average in the whole brain was determined as 100% was created from PET data integrated for 90 minutes.

[11] = biological target: T3, hM3D receptor; assay: 18F-FDG PET glucose metabolism, C22b 1 μg/kg versus solvent, one-way repeated measures ANOVA, hM3D in left amygdala; format: in vivo, monkey; conditions: Macaca mulatta
Method: Then, the AAV vector was injected into Macaca mulatta different from in Example 3 (male, 3 kg) in the same manner as in Example 3. On the day 70 days after, a C22b compound solution (1 μg/kg) or a solvent was intravenously administered under isoflurane anesthesia, 1 minute later, ^18F-FDG (224 to 286 MBq) was intravenously administered, and then subjected to PET scanning for 120 minutes. The process was performed four times for each intravenous dose. Note that the solvent was the same as a solvent used for the C22b compound solution (solvent: 0.1 mL/kg of saline containing 1% dimethyl sulfoxide and 5% Tween 20 (surfactant)).
A glucose metabolism image (whole brain activity) when an average of the whole brain was determined as 100% was created from PET data integrated from 30 minutes to 60 minutes after the administration. Then, a site in which the C22b administration caused a statistically significant change compared to a solvent administration was analyzed by one-way repeated measures ANOVA using MATLAB (R2016a) and SPM12.

[12] = tested on: hM4D; assay: PET imaging of axon terminal (substantia nigra pars reticulata), projection target of hM4D-expressing nerve cell in right putamen; format: in vivo; conditions: Japanese macaque, PET average image 30 to 90 minutes after tracer
Method: as §1, §2

T3 sequence (P20309 whole entry Y149C/A239G, the tested form may be a part): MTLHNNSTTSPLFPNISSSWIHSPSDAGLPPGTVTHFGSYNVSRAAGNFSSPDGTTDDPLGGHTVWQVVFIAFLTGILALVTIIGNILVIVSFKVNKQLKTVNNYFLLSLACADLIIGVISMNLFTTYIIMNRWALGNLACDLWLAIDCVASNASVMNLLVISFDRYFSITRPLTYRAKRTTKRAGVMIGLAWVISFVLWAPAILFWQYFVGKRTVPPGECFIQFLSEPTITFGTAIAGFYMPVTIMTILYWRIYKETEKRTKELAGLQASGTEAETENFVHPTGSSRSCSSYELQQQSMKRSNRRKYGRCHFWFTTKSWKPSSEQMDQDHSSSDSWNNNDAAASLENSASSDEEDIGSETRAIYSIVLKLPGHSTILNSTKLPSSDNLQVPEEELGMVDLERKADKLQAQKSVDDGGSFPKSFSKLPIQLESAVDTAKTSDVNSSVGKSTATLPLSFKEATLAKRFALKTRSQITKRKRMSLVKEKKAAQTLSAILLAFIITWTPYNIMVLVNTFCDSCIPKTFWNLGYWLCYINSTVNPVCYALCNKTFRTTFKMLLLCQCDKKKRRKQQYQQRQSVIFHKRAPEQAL

Structure (SMILES): [11CH3]N1CCC(C2=Nc3ccccc3Nc3ccccc32)CC1 [[^11C]C22b]
- visualisation of hM4D in the axon terminal (substantia nigra pars reticulata) [1]: hM4D was confirmed to be expressed in the axon terminal
- binding potential in control region (left putamen) [2]: 0.28
- binding potential in the right putamen into which the AAV vector had been injected ([3]; i.v. tracer 364 MBq, PET 90 minutes, cerebellum BP determined as 1, hM4D-expressed region): 3.07
- binding potential of injected region relative to non-injection region ([3]; right putamen (hM4D) vs left putamen): 11 times
- binding potential in control region (right amygdala) [4]: 0.31
- binding potential in the left amygdala into which the AAV vector had been injected ([5]; i.v. tracer 277 MBq, PET 90 minutes, cerebellum BP determined as 1, hM3D-expressed region): 1.05
- binding potential of injected region relative to non-injection region ([5]; left amygdala (hM3D) vs right amygdala): 3.4 times
- Whole brain amount of uptake of tracer [6]: 2.42 g/cc
- Control region (hM3D-unexpressed region) amount of uptake of tracer ([6]; opposite region): 2.60 g/cc
- Selectivity (expressed region/unexpressed region) ([7]; hM3D, ratio of tracer amount per volume): 1.45
- hM3D-expressed region amount of uptake of tracer ([7]; left amygdala): 3.77 g/cc
- Selectivity (expressed region/unexpressed region) [8]: 2.31
- hM4D-expressed region amount of uptake of tracer [8]: 6.32 g/cc
- Whole brain amount of uptake of tracer [9]: 2.47 g/cc
- Control region (hM4D-unexpressed region) amount of uptake of tracer [9]: 2.74 g/cc

Structure (SMILES): CN1CCN(C2=Nc3ccccc3Nc3ccccc32)CC1 [C22b]
- glucose metabolism in left amygdala (AAV injected) relative to control region (right amygdala) ([10]; C22b 0.1 mg/kg i.v., 18F-FDG PET 90 minutes): 1.88 times
- action at hM3D receptor ([10]; glucose metabolism activated in hM3D-expressing left amygdala): acted as an agonist
- t-value for the AAV vector injected region (one-way repeated measures ANOVA) ([11]; C22b 1 μg/kg i.v. vs solvent, left amygdala): > 5.2
- glucose metabolism activity in left amygdala, C22b versus solvent administration ([11]; C22b 1 μg/kg i.v., 18F-FDG PET 30 to 60 minutes, uncorrected p<0.001): significantly high

Structure (SMILES): CN1CCN(C2=Nc3cc(Cl)ccc3Nc3ccccc32)CC1 [[^11C]clozapine, [^11C]8-chloro-11-(4-methylpiperazine-1-yl)-5H-dibenzo[b,e] [1,4]diazepine, reference compound]
- visualisation of hM4D in the axon terminal (substantia nigra pars reticulata) [1]: hM4D was confirmed to be expressed in the axon terminal
- binding to other nerve cells or brain tissues (off-target) [12]: also allowed to bind to nerve cells other than the nerve cell of interest or brain tissues to some extent
- Selectivity (expressed region/unexpressed region) [8]: 1.25
- hM4D-expressed region amount of uptake of tracer [8]: 5.73 g/cc
- Whole brain amount of uptake of tracer [9]: 3.24 g/cc
- Control region (hM4D-unexpressed region) amount of uptake of tracer [9]: 4.57 g/cc
